In ChEMBL document CHEMBL1137623, “Synthesis and in-vitro biological activity of macrocyclic urea Chk1 inhibitors” (Bioorg Med Chem Lett, 2007) one finds EC50 and IC50 data, which are given here for 42 compounds.

One assay concerns NCI-H1299. Put plainly: Cell cycle arrest in human NCI-H1299 cells assessed as accumulation at G2/M phase by FACS. In kind it is functional, cell-based.
A further assay concerns HeLa. The experiment in a line: Antiproliferative activity against human HeLa cells by MTS assay. In kind it is functional, cell-based.
In assay [1] the target is T1, Serine/threonine-protein kinase Chk1 (Homo sapiens, UniProt O14757).
T1 sequence (O14757 whole entry): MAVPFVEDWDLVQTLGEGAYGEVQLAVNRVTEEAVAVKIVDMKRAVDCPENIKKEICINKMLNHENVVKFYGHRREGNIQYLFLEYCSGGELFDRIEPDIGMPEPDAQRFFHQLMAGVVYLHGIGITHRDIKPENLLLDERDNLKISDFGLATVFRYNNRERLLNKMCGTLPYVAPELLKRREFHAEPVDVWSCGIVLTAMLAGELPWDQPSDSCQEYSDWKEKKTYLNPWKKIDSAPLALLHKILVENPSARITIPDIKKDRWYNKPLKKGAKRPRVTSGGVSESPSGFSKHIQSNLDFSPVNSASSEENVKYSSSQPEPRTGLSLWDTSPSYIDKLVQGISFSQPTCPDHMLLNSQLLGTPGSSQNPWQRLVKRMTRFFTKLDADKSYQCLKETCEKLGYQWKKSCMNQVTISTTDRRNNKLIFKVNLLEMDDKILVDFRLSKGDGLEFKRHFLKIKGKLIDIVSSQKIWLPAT
Put plainly: Inhibition of Chk1 enzyme by radiometric assay.

As for `COc1ccc2c(c1)NC(=O)Nc1cnc(C#N)c(n1)OCCCCCO2`, the figures for the EC50 in the assay with NCI-H1299 and with HeLa were > 10 µM and > 59.3 µM, respectively. This compound had an IC50 in assay [1] of 0.025 µM.
As for `N#Cc1ncc2nc1OCC/C=C\COc1ccc(Br)cc1NC(=O)N2`, the 50% effective concentration (EC50) in the assay on NCI-H1299 was > 10 µM; in the assay on HeLa, 29.4 µM. Moreover, 0.012 µM corresponded to half-maximal inhibition in assay [1] (IC50).
Turning to `N#Cc1ncc2nc1OCCCCCOc1ccc(Cl)cc1NC(=O)N2`, the figures for the EC50 in the assay on NCI-H1299 and in the assay on HeLa were > 10 µM and 57.6 µM, respectively. The concentration for half-maximal inhibition (IC50) in assay [1] came out at 0.011 µM.
In the case of `N#Cc1ncc2nc1OCCCCCOc1ccc(CCO)cc1NC(=O)N2`, the half-maximal effective concentration (EC50) in the assay on NCI-H1299 is > 10 µM; in the assay with HeLa, > 59.3 µM. Inhibition in assay [1] was half-maximal at 0.039 µM (IC50).
Take `N#Cc1ncc2nc1OCCCCCOc1ccc(OCCCCCN3CCOCC3)cc1NC(=O)N2`: the 50% effective concentration (EC50) in the assay with NCI-H1299 was > 10 µM; with HeLa, 8.87 µM. For the same compound, in assay [1], the IC50 was 0.003 µM.
For `N#Cc1ncc2nc1OC/C=C\COc1ccc(OCCCN3CCOCC3)cc1NC(=O)N2`, the 50% effective concentration (EC50) in the assay on HeLa is > 59.3 µM. In assay [1], this compound gave an IC50 of 0.004 µM.
`N#Cc1ncc2nc1OCC/C=C\COc1ccccc1NC(=O)N2`: the results for the EC50 in the assay on NCI-H1299 and with HeLa were > 10 µM and 40 µM, respectively. This compound returned an IC50 in assay [1] of 0.012 µM.
`CCOc1ccc2c(c1)NC(=O)Nc1cnc(C#N)c(n1)OCCCCCO2`: the EC50 in the assay with NCI-H1299 is > 10 µM; with HeLa, > 59.3 µM. Besides, in assay [1], the midpoint of inhibition, the IC50, lay at 0.055 µM.
In assay [1], `N#Cc1ncc2nc1OCCCCCOc1ccc(OCCCCN3CCOCC3)cc1NC(=O)N2` gave an IC50 of 0.003 µM.
For the compound `N#Cc1ncc2nc1OCC/C=C\COc1ccc(O)cc1NC(=O)N2`, the concentration giving a half-maximal response (EC50) in the assay on NCI-H1299 was > 10 µM; with HeLa, > 59.3 µM. The compound also registered an IC50 in assay [1] of 0.034 µM.
For `N#Cc1ncc2nc1OCCCCOc1ccc(OCCCN3CCOCC3)cc1NC(=O)N2`, the concentration giving a half-maximal response (EC50) in the assay on HeLa was > 59.3 µM. In assay [1], this compound gave an IC50 of 0.002 µM.
For `CC(=O)Nc1ccc2c(c1)NC(=O)Nc1cnc(C#N)c(n1)OCCCCCO2`, the IC50 in assay [1] stood at 0.008 µM.
On to `N#Cc1ncc2nc1OCC/C=C\COc1ccc(CCCOC3CCCCO3)cc1NC(=O)N2` (stereo not drawn), for which the EC50 was > 10 µM with NCI-H1299 and > 59.3 µM in the assay with HeLa. In assay [1], this compound displayed an IC50 of 0.091 µM.
As for `CC(C)(C)[Si](Oc1ccc2c(c1)NC(=O)Nc1cnc(C#N)c(n1)OCC/C=C\CO2)(c1ccccc1)c1ccccc1`, the IC50 in assay [1] is > 10 µM.
In the case of `Cc1ccc2c(c1)NC(=O)Nc1cnc(C#N)c(n1)OCC/C=C\CO2`, the EC50 is > 10 µM in the assay on NCI-H1299 and > 59.3 µM with HeLa. In addition, the midpoint of inhibition in assay [1], the IC50, lay at 0.015 µM.
Consider `N#Cc1ncc2nc1OCC/C=C\COc1ccc(CCOC3CCCCO3)cc1NC(=O)N2` (stereo not drawn), for which the EC50 in the assay on NCI-H1299 was > 10 µM. Further, the half-inhibitory concentration (IC50) in assay [1] worked out at 0.108 µM.
With `N#Cc1ncc2nc1OCCCCCOc1ccc(OCCCN3CCOCC3)cc1NC(=O)N2`, the values for the concentration for a half-maximal effect (EC50) in the assay on NCI-H1299 and in the assay on HeLa were > 10 µM and 4.03 µM, respectively. Besides, in assay [1], the IC50 is 0.007 µM.
For `N#Cc1ncc2nc1OCC/C=C\COc1ccc(CCCO)cc1NC(=O)N2`, the half-maximal effective concentration (EC50) was > 10 µM with NCI-H1299 and > 59.3 µM in the assay with HeLa. The same compound yielded an IC50 in assay [1] of 0.069 µM.
On the same counts, the results for `N#Cc1ncc2nc1OCC/C=C\COc1ccc(OCCOC3CCCCO3)cc1NC(=O)N2` (stereo not drawn) are > 10 µM, 30.9 µM and 0.019 µM.
On the same counts, the results for `COc1ccc2c(c1)NC(=O)Nc1cnc(C#N)c(n1)OCC/C=C\CO2` are > 10 µM, > 59.3 µM and 0.037 µM.
Take `N#Cc1ncc2nc1OCCCCCOc1ccc(OCCO)cc1NC(=O)N2`: the concentration giving a half-maximal response (EC50) in the assay with NCI-H1299 is > 10 µM; in the assay with HeLa, > 59.3 µM. In assay [1], half-maximal inhibition (IC50) required 0.011 µM.
With `N#Cc1ncc2nc1OC/C=C\COc1ccc(OCCCCCN3CCCOC3)cc1NC(=O)N2`, in the assay with HeLa, the half-maximal effective concentration (EC50) was > 59.3 µM. This compound returned a concentration for half-maximal inhibition (IC50) in assay [1] of 0.002 µM.
Take `N#Cc1ncc2nc1OCCCCOc1ccc(Cl)cc1NC(=O)N2`: the EC50 in the assay with NCI-H1299 was > 10 µM; in the assay on HeLa, > 59.3 µM.
On to `N#Cc1ncc2nc1OCC/C=C\COc1ccc(OCCCCCN3CCOCC3)cc1NC(=O)N2`, for which the 50% effective concentration (EC50) with NCI-H1299 is > 10 µM; in the assay on HeLa it was 5.27 µM. The compound further returned an IC50 in assay [1] of 0.005 µM.
The compound `N#Cc1ncc2nc1OC/C=C\COc1ccc(OCCCCN3CCOCC3)cc1NC(=O)N2` had a half-maximal effective concentration (EC50) in the assay on HeLa of 7.56 µM. The same compound yielded an IC50 in assay [1] of 0.004 µM.
On the same counts, the results for `N#Cc1ncc2nc1OCCCCOc1ccc(OCCCCN3CCOCC3)cc1NC(=O)N2` are > 59.3 µM and 0.004 µM.
In the case of `N#Cc1ncc2nc1OCCCCCOc1ccc(CCCO)cc1NC(=O)N2`, the concentration for a half-maximal effect (EC50) in the assay on NCI-H1299 is > 10 µM; with HeLa, > 59.3 µM. This compound had an IC50 in assay [1] of 0.024 µM.
On the same counts, the results for `N#Cc1ncc2nc1OCC/C=C\COc1ccc(Cl)cc1NC(=O)N2` are > 10 µM, 11.9 µM and 0.01 µM.
As to `COc1ccc(NC(C)=O)cc1NC(=O)Nc1cnc(C#N)cn1`, the half-inhibitory concentration (IC50) in assay [1] is 0.022 µM.
The same measure, in the same setting: with `N#Cc1ncc2nc1OCC/C=C\COc1ccc(OCCCCN3CCOCC3)cc1NC(=O)N2` the figure was 0.006 µM.
Consider `N#Cc1ncc2nc1OCC/C=C\COc1ccc(CCO)cc1NC(=O)N2`, for which, in the assay with NCI-H1299, the concentration giving a half-maximal response (EC50) was > 10 µM. The same compound displayed an IC50 in assay [1] of 0.097 µM.
`N#Cc1ncc2nc1OCC/C=C\COc1ccc(OCCO)cc1NC(=O)N2`: the EC50 in the assay with NCI-H1299 was > 10 µM; in the assay with HeLa, > 59.3 µM. In assay [1], the 50% inhibitory concentration (IC50) was found to be 0.013 µM.
Regarding `N#Cc1ncc2nc1OC/C=C\COc1ccc(Cl)cc1NC(=O)N2`, the figures for the EC50 with NCI-H1299 and in the assay with HeLa were > 10 µM and > 59.3 µM, respectively. Also, half-maximal inhibition in assay [1] (IC50) required 0.005 µM.
Regarding `CN(C)CCOc1ccc2c(c1)NC(=O)Nc1cnc(C#N)c(n1)OCC/C=C\CO2`, the concentration for a half-maximal effect (EC50) was > 10 µM with NCI-H1299 and 30.4 µM with HeLa. The IC50 in assay [1] amounted to 0.015 µM.
For `CCOc1ccc(OCC)c(NC(=O)Nc2cnc(C#N)cn2)c1`, the midpoint of inhibition in assay [1], the IC50, lay at 0.031 µM.
With `N#Cc1ncc2nc1OCCCCCOc1ccc(Br)cc1NC(=O)N2`, the figures for the EC50 in the assay with NCI-H1299 and in the assay on HeLa were > 10 µM and 52.8 µM, respectively. Besides, in assay [1], the midpoint of inhibition, the IC50, lay at 0.012 µM.
As to `CC(=O)Nc1ccc2c(c1)NC(=O)Nc1cnc(C#N)c(n1)OCC/C=C\CO2`, the concentration for half-maximal inhibition (IC50) in the assay on NCI-H1299 was > 10 µM; in assay [1], 0.016 µM. In the assay with HeLa, the EC50 is 39.9 µM.
With `N#Cc1ncc2nc1OCCCCCOc1ccccc1NC(=O)N2`, the concentration for a half-maximal effect (EC50) in the assay with NCI-H1299 was > 10 µM; with HeLa it was > 59.3 µM. The compound further yielded a half-maximal inhibitory concentration (IC50) in assay [1] of 0.016 µM.
With `Cc1ccc2c(c1)NC(=O)Nc1cnc(C#N)c(n1)OCCCCCO2`, half-maximal inhibition in assay [1] (IC50) required 0.008 µM.
For the compound `CCOc1ccc2c(c1)NC(=O)Nc1cnc(C#N)c(n1)OCC/C=C\CO2`, the EC50 in the assay on NCI-H1299 is > 10 µM; in the assay with HeLa, > 59.3 µM. Moreover, the IC50 in assay [1] was found to be 0.019 µM.
Regarding `N#Cc1ncc2nc1OCCCCOc1ccc(OCCCCCN3CCCOC3)cc1NC(=O)N2`, the EC50 with HeLa was > 59.3 µM. This compound gave a 50% inhibitory concentration (IC50) in assay [1] of 0.003 µM.
For the compound `N#Cc1ncc2nc1OCC/C=C\COc1ccc(OCCCN3CCOCC3)cc1NC(=O)N2`, the concentration giving a half-maximal response (EC50) in the assay with NCI-H1299 was > 10 µM; with HeLa, > 59.3 µM. The compound further registered a 50% inhibitory concentration (IC50) in assay [1] of 0.005 µM.
